Assay results published in the supplement of paper PMC10307832.

Experiments:
Experiment in all cases: relative viability (nuclei count vs DMSO), 5 days (fraction); higher = more cells survive
[1] = compound: CN1CCC(CC1)OC2=CC(=C(C=C2)NC3=NC=C4C(=N3)N(C(=O)N4C)C5CCCC5)OC [AZ3146] + CCNC(=O)c1noc(-c2cc(C(C)C)c(O)cc2O)c1-c1ccc(CN2CCOCC2)cc1 [Luminespib] (partner 0.01 µM)
Procedure, shortened: (§1)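 Each reported value is a median over duplicate plates. It expresses relative viability: treated-well nuclei count divided by vehicle-well nuclei count. Lung cancer cell lines in 1536-well plates were dosed by pin tool a day after seeding, alone with one drug or with a fixed anchor-drug dose plus five library-drug doses (not always all listed) in √10 steps, and nuclei were counted after 5 days.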

[2] = compound: CN1CCC(CC1)OC2=CC(=C(C=C2)NC3=NC=C4C(=N3)N(C(=O)N4C)C5CCCC5)OC [AZ3146] + CC1(C)CCC(c2ccc(Cl)cc2)=C(CN2CCN(c3ccc(C(=O)NS(=O)(=O)c4ccc(N[C@H](CCN5CCOCC5)CSc5ccccc5)c(S(=O)(=O)C(F)(F)F)c4)cc3)CC2)C1 [Navitoclax] (partner 0.5 µM)
Procedure, shortened: as §1

[3] = compound: CN1CCC(CC1)OC2=CC(=C(C=C2)NC3=NC=C4C(=N3)N(C(=O)N4C)C5CCCC5)OC [AZ3146] + Cc1nc(Nc2ncc(C(=O)Nc3c(C)cccc3Cl)s2)cc(N2CCN(CCO)CC2)n1 [Dasatinib] (partner 0.075 µM)
Procedure, shortened: as §1

[4] = compound: CCOC(=O)CCNc1cc(N2CCc3ccccc3CC2)nc(-c2ccccn2)n1 [GSK-J4] + C[C@@H](Oc1cc(-c2cnn(C3CCNCC3)c2)cnc1N)c1c(Cl)ccc(F)c1Cl [Crizotinib] (partner 1 µM)
Procedure, shortened: as §1

| Cell Line | relative viability ([1]; first compound 0.08 µM) | relative viability ([1]; first compound 0.253 µM) | relative viability ([1]; first compound 0.8 µM) | relative viability ([1]; first compound 2.53 µM) | relative viability ([1]; first compound 8 µM) | relative viability ([2]; first compound 0.08 µM) | relative viability ([2]; first compound 0.253 µM) | relative viability ([2]; first compound 0.8 µM) | relative viability ([2]; first compound 2.53 µM) | relative viability ([2]; first compound 8 µM) | relative viability ([3]; first compound 0.08 µM) | relative viability ([3]; first compound 0.253 µM) | relative viability ([3]; first compound 0.8 µM) | relative viability ([3]; first compound 2.53 µM) | relative viability ([3]; first compound 8 µM) | relative viability ([4]; first compound 0.5 µM) | relative viability ([4]; first compound 1.581 µM) | relative viability ([4]; first compound 5 µM) | relative viability ([4]; first compound 15.81 µM) | relative viability ([4]; first compound 50 µM) |
| --- | --- | --- | --- | --- | --- | --- | --- | --- | --- | --- | --- | --- | --- | --- | --- | --- | --- | --- | --- | --- |
| NCI-H1650 | 0.214 | 0.201 | 0.185 | 0.189 | 0.186 | 1.21 | 1.34 | 1.26 | 1.38 | 1.19 | 0.318 | 0.315 | 0.37 | 0.265 | 0.225 | 0.847 | 0.962 | 0.862 | 0.935 | 0.721 |
| NCI-H1651 | 0.966 | 0.881 | 0.984 | 0.761 | 0.779 | 1.03 | 1.07 | 1 | 0.995 | 1.1 | 0.335 | 0.387 | 0.422 | 0.35 | 0.251 | 0.854 | 0.737 | 0.92 | 0.817 | 0.85 |
| NCI-H1666 | 1.08 | 1.04 | 1 | 1.04 | 0.763 | 0.859 | 0.805 | 0.951 | 1.05 | 0.81 | 0.799 | 0.818 | 0.74 | 0.764 | 0.596 | 0.925 | – | 1.01 | 0.882 | 0.462 |
| NCI-H1734 | 0.181 | 0.198 | 0.689 | 0.198 | 0.2 | 0.821 | 0.828 | 0.831 | 0.847 | 0.846 | 0.436 | 0.461 | 0.493 | 0.484 | 0.394 | 0.645 | 0.637 | 0.576 | 0.57 | 0.486 |
| NCI-H1755 | 0.415 | 0.365 | 0.537 | 0.966 | 0.696 | 0.992 | 1 | 0.948 | 1.03 | 1.01 | 0.492 | 0.425 | 0.424 | 0.441 | 0.408 | 0.841 | 0.821 | 0.891 | 0.733 | 0.772 |
| NCI-H1792 | 0.345 | 0.478 | 0.571 | 0.435 | 0.431 | 0.492 | 0.786 | 0.582 | 0.64 | 0.654 | 0.737 | 0.855 | – | 0.808 | 0.822 | 0.981 | 0.675 | 0.911 | 0.955 | 0.959 |
| NCI-H1915 | 0.717 | 0.888 | 0.913 | 0.875 | 0.919 | 0.783 | 0.807 | 0.807 | 0.816 | 0.814 | 0.262 | 0.344 | 0.337 | 0.301 | 0.318 | 0.852 | 0.826 | 0.87 | 0.915 | 0.804 |
| NCI-H1944 | 0.617 | 0.786 | 0.777 | 0.906 | 1.06 | – | 1.02 | 1 | 1.13 | 1.15 | 0.171 | 0.194 | 0.214 | 0.239 | 0.229 | 1.14 | 1.06 | 1.11 | 1.1 | 1.07 |
| NCI-H1975 | 0.215 | 0.173 | 0.162 | 0.204 | 0.257 | 1.19 | 1.18 | 1.14 | 1.17 | 1.01 | 0.358 | 0.338 | 0.346 | 0.321 | 0.198 | 0.928 | 1.02 | – | 0.998 | 1 |
| NCI-H1993 | 0.86 | 0.92 | 0.911 | 1.06 | 1.02 | 0.972 | 0.935 | 0.993 | 0.929 | 0.898 | 0.537 | 0.563 | 0.677 | 0.643 | 0.475 | 0.826 | 0.789 | 0.938 | 0.841 | 0.796 |
| NCI-H2009 | 0.996 | 1.06 | 0.973 | 1.06 | 0.999 | 1.02 | 1.27 | 1.2 | 1.25 | 1.03 | 0.363 | 0.315 | 0.284 | 0.241 | 0.184 | 0.955 | 1 | 0.77 | 1.05 | 0.789 |
| NCI-H2023 | 0.657 | 0.774 | 0.78 | 0.593 | 0.153 | 0.887 | 1.08 | 1.06 | 1.04 | 0.652 | 0.57 | 0.584 | 0.472 | 0.498 | 0.147 | 0.542 | 0.621 | 0.678 | 0.597 | 0.654 |
| NCI-H2085 | 0.417 | 0.416 | 0.394 | 0.427 | 0.608 | 1.03 | 1.14 | 1.06 | 1.08 | 1.03 | 0.256 | 0.231 | 0.266 | 0.257 | 0.208 | 0.839 | 0.609 | 0.617 | 0.794 | 0.906 |
| NCI-H2087 | 0.232 | 0.182 | 0.217 | 0.209 | 0.199 | 1.04 | 1.06 | 1.08 | 1.05 | 0.968 | 0.802 | 1.09 | 0.902 | 0.801 | 0.702 | 0.685 | 0.767 | – | 0.859 | 0.516 |
